According to ChEMBL document CHEMBL1128814, “Non-peptide neuropeptide y antagonists derived from the histamine H2 agonist arpromidine: Role of the guanidine group” (Bioorg Med Chem Lett, 1995):
Activity calls are given as the source filed them. The calls are words filed in the database; no cut-off is given here.

What was measured:
[1] = molecular target: Histamine H2 receptor (Cavia porcellus) (UniProt P47747); test: Histamine H2 receptor agonistic activity was evaluated by the inhibition of histamine-stimulated contraction in guinea pig atrium; type: functional, tissue-based; details: Cardiac atrium
Histamine H2 receptor (Cavia porcellus), sequence (P47747 whole entry): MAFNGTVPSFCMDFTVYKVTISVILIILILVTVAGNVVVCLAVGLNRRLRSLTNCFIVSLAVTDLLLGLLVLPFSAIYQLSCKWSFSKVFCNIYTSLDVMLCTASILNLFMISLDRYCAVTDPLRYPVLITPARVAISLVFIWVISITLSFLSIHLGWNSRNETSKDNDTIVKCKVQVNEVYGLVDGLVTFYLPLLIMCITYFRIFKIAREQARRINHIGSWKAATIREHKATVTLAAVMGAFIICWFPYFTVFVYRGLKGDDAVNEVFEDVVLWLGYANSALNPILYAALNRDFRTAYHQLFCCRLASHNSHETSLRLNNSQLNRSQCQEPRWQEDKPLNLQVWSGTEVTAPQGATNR

[2] = molecular target: Histamine H2 receptor (Cavia porcellus) (UniProt P47747); test: Intrinsic activity was evaluated against H2 receptor in guinea pig atrium; type: tissue-based; details: Cardiac atrium
[3] = molecular target: T1, Neuropeptide Y receptor type 1 (Homo sapiens) (UniProt P25929); test: Tested for inhibition of NPY-induced increase in [Ca2+] at 100 uM concentration in human erythroleukemia cells; type: functional
T1 sequence (whole entry): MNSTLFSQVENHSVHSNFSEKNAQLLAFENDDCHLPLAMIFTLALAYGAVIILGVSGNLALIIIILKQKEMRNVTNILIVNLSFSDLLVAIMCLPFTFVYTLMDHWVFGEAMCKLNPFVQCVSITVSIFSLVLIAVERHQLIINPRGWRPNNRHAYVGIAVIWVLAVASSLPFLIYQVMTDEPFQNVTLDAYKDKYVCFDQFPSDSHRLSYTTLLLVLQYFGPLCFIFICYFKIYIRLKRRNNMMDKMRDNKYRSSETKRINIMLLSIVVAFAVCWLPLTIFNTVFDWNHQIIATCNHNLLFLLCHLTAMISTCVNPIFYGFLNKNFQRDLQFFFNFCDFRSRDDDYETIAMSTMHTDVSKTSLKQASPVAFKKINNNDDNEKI

[4] = molecular target: Histamine H1 receptor (Cavia porcellus) (UniProt P31389); test: Antagonistic activity (H1 antagonism) evaluated by the inhibition of histamine-stimulated contraction in guinea pig ileum at a concentration of 1E-7 - 1E-4 M; type: functional, tissue-based
Histamine H1 receptor (Cavia porcellus), sequence (P31389 whole entry): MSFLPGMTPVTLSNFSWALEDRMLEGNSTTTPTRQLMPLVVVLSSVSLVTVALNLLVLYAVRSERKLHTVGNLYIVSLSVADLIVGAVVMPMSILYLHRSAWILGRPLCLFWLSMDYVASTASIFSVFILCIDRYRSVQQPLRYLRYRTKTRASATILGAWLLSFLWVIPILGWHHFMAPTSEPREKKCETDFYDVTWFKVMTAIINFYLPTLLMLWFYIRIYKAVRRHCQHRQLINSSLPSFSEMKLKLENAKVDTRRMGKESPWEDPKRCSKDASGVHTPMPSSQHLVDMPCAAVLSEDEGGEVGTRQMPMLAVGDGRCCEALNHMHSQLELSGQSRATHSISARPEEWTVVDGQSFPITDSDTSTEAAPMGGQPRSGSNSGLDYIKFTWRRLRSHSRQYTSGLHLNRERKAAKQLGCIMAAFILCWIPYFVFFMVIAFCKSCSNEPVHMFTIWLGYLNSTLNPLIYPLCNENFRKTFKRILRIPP

[5] = molecular target: T1, Neuropeptide Y receptor type 1 (Homo sapiens); test: Tested for inhibition of NPY-induced increase in [Ca2+] at 10 uM concentration in human erythroleukemia cells; type: functional
[6] = molecular target: Histamine H2 receptor (Cavia porcellus) (UniProt P47747); test: Histamine H2 receptor agonistic activity (positive chronotropism) was evaluated by the inhibition of histamine-stimulated contraction in guinea pig atrium; Inactive; type: functional, tissue-based; details: Cardiac atrium
[7] = molecular target: T1, Neuropeptide Y receptor type 1 (Homo sapiens); test: Tested for inhibition of NPY-induced increase in [Ca2+] at 100 uM concentration in human erythroleukemia cells; inactive; type: functional
[8] = molecular target: T1, Neuropeptide Y receptor type 1 (Homo sapiens); test: Tested for inhibition of NPY-induced increase in [Ca2+] at 10 uM concentration in human erythroleukemia cells; inactive; type: functional
[9] = molecular target: T2, Neuropeptide Y receptor type 1 (Homo sapiens, UniProt P25929); test: (§1) pA2 for inhibition of NPY-stimulated [Ca2+] mobilization in HEL cells; type: functional, cell-based; details: read-out: pA2 (converted)
T2 sequence (P25929 whole entry): T1 sequence (whole entry)

[10] = molecular target: T1, Neuropeptide Y receptor type 1 (Homo sapiens); test: Tested for inhibition of NPY-induced increase in [Ca2+] at 10 uM concentration in human erythroleukemia cells; Not determined; type: functional
[11] = molecular target: Histamine H2 receptor (Cavia porcellus) (UniProt P47747); test: Intrinsic activity was evaluated in guinea pig atrium at a concentration of 1E-7 - 1E-4 M; type: tissue-based; details: Cardiac atrium
[12] = molecular target: Histamine H2 receptor (Cavia porcellus) (UniProt P47747); test: Histamine H2 receptor […] activity (positive chronotropism) was evaluated by the inhibition of histamine-stimulated contraction in guinea pig atrium at a concentration of 1E-7 - 1E-4 M; type: functional, tissue-based; details: Cardiac atrium
[13] = molecular target: Histamine H2 receptor (Cavia porcellus) (UniProt P47747); test: Intrinsic activity was evaluated against H2 receptor in guinea pig atrium at a concentration of 1E-7 - 1E-4 M; type: tissue-based; details: Cardiac atrium
[14] = molecular target: T1, Neuropeptide Y receptor type 1 (Homo sapiens); test: Tested for inhibition of NPY-induced increase in [Ca2+] at 10 uM concentration in human erythroleukemia cells; Not determined; inactive; type: functional
[15] = molecular target: T1, Neuropeptide Y receptor type 1 (Homo sapiens); test: as §1; type: cell-based

Row | Compound | pD2 [1] | Intrinsic activity [2] | inhibition [3] [%] | pKB [4] | inhibition [5] [%] | further results
1 | c1ccc(C(CCC/N=C(/NCCCc2c[nH]cn2)NC2CCCCC2)c2ccccn2)cc1 (stereo unspecified) | 4.49 | 0.25 | 53 | 5.56 | 6 | –
2 | CN/C(=N\CCC(c1ccc(F)cc1)c1ccccn1)NCCCc1c[nH]cn1 (stereo unspecified) | 5.65 | 1 | 13 | 5.08 | – | –
3 | N=C(N)NCCC(c1ccc(F)cc1)c1ccccn1 (stereo unspecified) | – | – | – | 6.44 | – | pD2 [6]: inactive; inhibition [7]: inactive
4 | Fc1ccc(C(CCCNCCCc2c[nH]cn2)c2ccccn2)cc1 (stereo unspecified) | 5.17 | 0.5 | 24 | 6.43 | – | –
5 | NC(=O)N/C(=N\CCC(c1ccc(F)cc1)c1ccccn1)NCCCc1c[nH]cn1 (stereo unspecified) | – | – | 62 | – | 2 | –
6 | N=C(NCCCc1c[nH]cn1)NCCC(c1cc(F)cc(F)c1)c1ccccn1 (stereo unspecified) | 8.05 | 1 | 62 | 6.56 | – | Kb [9]: 37.2 µM
7 | N=C(NCCCc1c[nH]cn1)NCCCC(c1ccc(Cl)c(Cl)c1)c1ccccn1 (stereo unspecified) | 6.67 | 1 | 78 | 7.46 | 31 | –
8 | N=C(NCCCc1c[nH]cn1)NCCC(c1ccc(Br)cc1)c1ccccn1 (stereo unspecified) | 7.48 | 1 | 85 | 6.92 | 27 | –
9 | Cc1ccc(CC(CC/N=C(/NCCCc2c[nH]cn2)NC2CCCCC2)c2ccccn2)cc1 (stereo unspecified) | – | 1 | 75 | 5.4 | 24 | pKB [12]: 5.93
10 | Clc1ccc(C(CCC/N=C(/NCCCc2c[nH]cn2)Nc2ccccc2)c2ccccn2)cc1Cl (stereo unspecified) | – | – | 78 | 5.5 | – | Intrinsic activity [13]: 1; pKB [12]: 4.97; inhibition [10]: 48%
11 | O=C(CCC(c1ccc(F)cc1)c1ccccn1)NCCCc1c[nH]cn1 (stereo unspecified) | < 3 | – | – | 3.97 | – | Intrinsic activity [13]: 1; inhibition [14]: inactive
12 | N=C(NCCCc1c[nH]cn1)NCCC(c1ccc(Cl)c(Cl)c1)c1ccccn1 (stereo unspecified) | 8.19 | 1 | 93 | 7.1 | 81 | pKB [15]: 6.25
13 | N=C(CCC(c1ccccc1)c1ccccn1)NCCCc1c[nH]cn1 (stereo unspecified) | 6.5 | 1 | 45 | 6.45 | – | –
14 | CN/C(=N\CCCC(c1ccc(Cl)c(Cl)c1)c1ccccn1)NCCCc1c[nH]cn1 (stereo unspecified) | 5.58 | 1 | 41 | 6.16 | – | –

The next lines start with results.

Row | pD2 [1] | Intrinsic activity [2] | inhibition [3] [%] | pKB [4] | inhibition [5] [%] | Compound | further results
15 | 6.61 | 1 | 84 | 6.06 | 8 | N=C(NCCCc1c[nH]cn1)NCCCC(c1ccccc1)c1ccccn1 (stereo unspecified) | –
16 | 5.75 | 0.9 | 38 | 5.71 | – | CN/C(=N\CCC(c1ccc(Br)cc1)c1ccccn1)NCCCc1c[nH]cn1 (stereo unspecified) | inhibition [8]: inactive
17 | 4.69 | 0.65 | 82 | 5.42 | 36 | Brc1ccc(C(CC/N=C(/NCCCc2c[nH]cn2)NC2CCCCC2)c2ccccn2)cc1 (stereo unspecified) | –
18 | 5.81 | 1 | – | 6.4 | 23 | Cc1ccc(CC(CC/N=C(\N)NCCCc2c[nH]cn2)c2ccccn2)cc1 (stereo unspecified) | –
19 | 4.65 | 1 | 87 | 5.76 | – | Clc1ccc(C(CCC/N=C(/NCCCc2c[nH]cn2)NC2CCCCC2)c2ccccn2)cc1Cl (stereo unspecified) | inhibition [10]: 30%
20 | – | – | 76 | 5.81 | 24 | Brc1ccc(C(CC/N=C(/NCCCc2c[nH]cn2)Nc2ccccc2)c2ccccn2)cc1 (stereo unspecified) | Intrinsic activity [11]: 1; pKB [12]: 5.14
21 | 5.4 | 0.8 | 42 | 5.96 | – | CN(CCC(c1ccc(F)cc1)c1ccccn1)C(=N)NCCCc1c[nH]cn1 (stereo unspecified) | –
22 | – | – | 4 | 5.3 | 2 | CCOC(=O)N/C(=N\CCC(c1ccc(F)cc1)c1ccccn1)NCCCc1c[nH]cn1 (stereo unspecified) | pD2 [6]: inactive
23 | 7.39 | 1 | 69 | 7.01 | 2 | N=C(NCCCc1c[nH]cn1)NCCC(c1ccccc1)c1ccccn1 (stereo unspecified) | –
24 | 8.01 | 1 | 75 | 7.65 | 18 | N=C(NCCCc1c[nH]cn1)NCCC(c1ccc(F)cc1)c1ccccn1 (stereo unspecified) | –
25 | – | – | 13 | – | – | N#CN/C(=N\CCC(c1ccc(F)cc1)c1ccccn1)NCCCc1c[nH]cn1 (stereo unspecified) | pD2 [6]: inactive; inhibition [8]: inactive
26 | 6.47 | 0.6 | 27 | 6.56 | 5 | N=C(CCCCc1c[nH]cn1)NCCC(c1ccc(F)cc1)c1ccccn1 (stereo unspecified) | –
